Test results published in patent publication US9273029B2, “Pyridine-and pyrazine derivatives” (Merck Patent GmbH, priority 2011, dated 2016).
pIC50: −log10 of the molar value.

Legend:
[1] = molecular target: TANK binding kinase (TBK1) (Homo sapiens (Human), UniProt Q9UHD2); experiment: TBK1 enzyme assay (384-well Flashplate kinase assay); format: biochemical; conditions: 10 μM ATP, 120 Min at 30° C.
Method: The kinase assay is performed as 384-well Flashplate assay (for e.g. Topcount measurement. 0.6 nM TANK binding kinase (TBK1), 800 nM biotinylated MELK-derived peptide (Biotin-Ah-Ah-[…]) SEQ ID NO: 2 and 10 μM ATP (spiked with 0.25 μCi ^33P-ATP/well) are incubated in a total volume of 50 μl (10 mM MOPS, 10 mM Mg-acetat, 0.1 mM EGTA, 1 mM DTT, 0.02% Brij35, 0.1% BSA, pH 7.5) with or without test compound for 120 Min at 30° C. The reaction is stopped with 25 μl 200 mM EDTA. After 30 Min at room temperature the liquid is removed and each well washed thrice with 100 μl 0.9% sodium chloride solution. Nonspecific reaction is determined in presence of 100 nM Staurosporine. Radioactivity is measured in a Topcount (PerkinElmer). Results (e.g. IC50-values) are calculated with program tools provided by the IT-department (e.g. AssayExplorer, Symyx).

[2] = molecular target: IKKε (Homo sapiens (Human), UniProt Q14164); experiment: IKKε kinase assay (384-well Flashplate); format: biochemical; conditions: 10 μM ATP, 2 hours at 30° C.; read-out: IKKε enzyme assay IC50
Chain of IKKε (Q14164 whole entry): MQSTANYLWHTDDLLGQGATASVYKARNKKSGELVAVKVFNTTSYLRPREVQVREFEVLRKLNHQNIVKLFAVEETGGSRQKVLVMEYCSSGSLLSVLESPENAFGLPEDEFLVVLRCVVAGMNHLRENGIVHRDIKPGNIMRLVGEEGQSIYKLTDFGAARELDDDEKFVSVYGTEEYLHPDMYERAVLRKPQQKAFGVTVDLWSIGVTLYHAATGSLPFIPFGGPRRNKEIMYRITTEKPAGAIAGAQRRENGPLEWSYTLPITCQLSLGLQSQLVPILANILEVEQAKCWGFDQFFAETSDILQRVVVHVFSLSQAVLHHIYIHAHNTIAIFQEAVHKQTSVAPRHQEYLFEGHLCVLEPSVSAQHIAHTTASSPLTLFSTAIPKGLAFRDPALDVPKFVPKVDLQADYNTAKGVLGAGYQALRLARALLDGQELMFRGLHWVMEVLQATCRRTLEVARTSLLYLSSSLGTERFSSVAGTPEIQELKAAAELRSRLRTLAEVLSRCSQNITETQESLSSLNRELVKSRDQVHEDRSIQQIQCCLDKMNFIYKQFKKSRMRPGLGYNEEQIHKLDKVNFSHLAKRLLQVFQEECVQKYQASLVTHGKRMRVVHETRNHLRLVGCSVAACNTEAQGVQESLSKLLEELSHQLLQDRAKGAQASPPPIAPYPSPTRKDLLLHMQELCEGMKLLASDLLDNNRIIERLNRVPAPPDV
Method: IKKε—Kinase Assay (IKKepsilon)
The kinase assay is performed either as 384-well Flashplate assay (for e.g. Topcount measurement). 1 nM IKKε, 800 nM biotinylated IκBα(19-42) peptide (Biotin-C6-C6-[…]) SEQ ID NO: 1 and 10 μM ATP (spiked with 0.3 μCi ^33P-ATP/well) are incubated in a total volume of 50 μl (10 mM MOPS, 10 mM Mg-acetat, 0.1 mM EGTA, 1 mM Dithiothreitol,0.02% Brij35, 0.1% BSA, 0.1% BioStab, pH 7.5) with or without test compound for 2 hours at 30° C. The reaction is stopped with 25 μl 200 mM EDTA. After 30 Min at room temperature the liquid is removed and each well washed thrice with 100 μl 0.9% sodium chloride solution. Non-specific reaction is determined in presence of 3 μM MSC2119074 (BX-795). Radioactivity is measured with Topcount (PerkinElmer). Results (e.g. IC50-values) are calculated with program tools provided by the IT-department (e.g. AssayExplorer, Symyx).

Chain of TANK binding kinase (TBK1) (Q9UHD2 whole entry): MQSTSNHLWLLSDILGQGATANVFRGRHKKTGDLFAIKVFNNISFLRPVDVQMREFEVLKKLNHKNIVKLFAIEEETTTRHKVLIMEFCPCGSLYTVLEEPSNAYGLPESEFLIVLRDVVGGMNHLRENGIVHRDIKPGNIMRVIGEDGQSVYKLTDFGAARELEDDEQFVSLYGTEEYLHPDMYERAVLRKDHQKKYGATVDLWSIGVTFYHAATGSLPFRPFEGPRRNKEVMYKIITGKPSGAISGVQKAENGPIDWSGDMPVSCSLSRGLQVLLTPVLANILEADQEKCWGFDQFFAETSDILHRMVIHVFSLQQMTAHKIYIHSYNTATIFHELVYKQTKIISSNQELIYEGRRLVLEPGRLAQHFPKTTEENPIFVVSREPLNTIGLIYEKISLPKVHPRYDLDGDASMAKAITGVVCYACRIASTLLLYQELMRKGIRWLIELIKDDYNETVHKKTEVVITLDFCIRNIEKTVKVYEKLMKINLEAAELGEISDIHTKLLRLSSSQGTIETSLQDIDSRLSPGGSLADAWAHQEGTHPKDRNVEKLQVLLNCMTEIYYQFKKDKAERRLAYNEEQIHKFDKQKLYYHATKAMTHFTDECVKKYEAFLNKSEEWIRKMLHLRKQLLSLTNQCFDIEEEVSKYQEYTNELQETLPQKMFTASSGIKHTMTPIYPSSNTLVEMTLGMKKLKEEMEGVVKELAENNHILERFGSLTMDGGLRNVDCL

Row | SMILES | pIC50 [1] | pIC50 [2]
1 | Nc1ncc(-c2ccsc2)cc1C(=O)Nc1ccncc1 [Compound A49, 2-Amino-N-pyridin-4-yl-5-thiophen-3-yl-nicotinamide] | 6.39 | 6.03
2 | NC(=O)Cn1cc(-c2cnc(N)c(C(=O)Nc3ccncc3)c2)cn1 [Compound A25, 2-Amino-5-(1-carbamoylmethyl-1H-pyrazol-4-yl)-N-pyridin-4-yl-nicotinamide] | 6.44 | 6.28
3 | COCCn1cc(-c2cnc(N)c(C(=O)Nc3ccnc(C)c3)c2)cn1 [Compound A20, 2-Amino-5-[1-(2-methoxy-ethyl)-1H-pyrazol-4-yl]-N-(2-methyl-pyridine-4-yl)-nicotinamide] | 5.92 | 6.21
4 | Nc1ncc(-c2cn[nH]c2)cc1C(=O)Nc1ccncc1 [Compound A34, 2-Amino-5-(1H-pyrazol-4-yl)-N-pyridin-4-yl-nicotinamide] | 6.55 | 6.13
5 | COCCn1cc(-c2cnc(N)c(C(=O)Nc3ccncc3C)c2)cn1 [Compound A22, 2-Amino-5-[1-(2-methoxy-ethyl)-1H-pyrazol-4-yl]-N-(3-methyl-pyridin-4-yl)-nicotinamide] | 6.16 | 5.62
6 | Nc1ncc(-c2coc3ccccc23)cc1C(=O)Nc1ccncc1 [Compound A60, 2-Amino-5-benzofuran-3-yl-N-pyridin-4-yl-nicotinamide] | 6.64 | 6.52
7 | COC(=O)c1ccc(-c2cnc(N)c(C(=O)Nc3ccncc3)c2)cc1 [Compound A30, 4-[6-Amino-5-(pyridin-4-ylcarbamoyl)-pyridin-3-yl]-benzoic acid methyl ester] | 5.80 | 5.72
8 | COCCn1cc(-c2cnc(N)c(C(=O)Nc3ccnnc3)c2)cn1 [Compound A24, 2-Amino-5-[1-(2-methoxy-ethyl)-1H-pyrazol-4-yl]-N-pyridazin-4-yl-nicotinamide] | 5.92 | 6.05
9 | Cn1ccc(-c2cnc(N)c(C(=O)Nc3ccncc3)c2)n1 [Compound A47, 2-Amino-5-(1-methyl-1H-pyrazol-3-yl)-N-pyridin-4-yl-nicotinamide] | 6.48 | 6.42
10 | CC(=O)c1c[nH]c(-c2cnc(N)c(C(=O)Nc3ccncc3)c2)c1 [Compound A44, 5-(4-Acetyl-1H-pyrrol-2-yl)-2-amino-N-pyridin-4-yl-nicotinamide] | 6.62 | 6.38
11 | Cc1cc(NC(=O)c2cc(-c3csc(CN4CCOCC4)c3)cnc2N)ccn1 [Compound A15, 2-Amino-N-(2-methyl-pyridin-4-yl)-5-(5-morpholin-4-ylmethyl-thiophen-3-yl)-nicotinamide] | 6.17 | 5.70
12 | Nc1ncc(-c2cnn(Cc3ccccc3)c2)cc1C(=O)Nc1ccncc1 [Compound A46, 2-Amino-5-(1-benzyl-1H-pyrazol-4-yl)-N-pyridin-4-yl-nicotinamide] | 6.92 | 6.62
13 | Nc1ncc(-c2cnn(CC3OCCO3)c2)nc1C(=O)Nc1ccncc1 [Compound A12, 3-Amino-6-(1-[1,3]dioxolan-2-ylmethyl-1H-pyrazol-4-yl)-pyrazine-2-carboxylic acid pyridin-4-ylamide] | 5.08 | 6.00
14 | Nc1ncc(-c2c[nH]c3ccccc23)cc1C(=O)Nc1ccncc1 [Compound A56, 2-Amino-5-(1H-indol-3-yl)-N-pyridin-4-yl-nicotinamide] | 6.29 | 6.47
15 | Nc1ncc(-c2ccc(CN3CCOCC3)s2)nc1C(=O)Nc1ccncc1 [Compound A10, 3-Amino-6-(5-morpholin-4-ylmethyl-thiophen-2-yl)-pyrazine-2-carboxylic acid pyridin-4-ylamide] | 6.00 | 
16 | Nc1ncc(-c2ccc[nH]2)cc1C(=O)Nc1ccncc1 [Compound A57, 2-Amino-N-pyridin-4-yl-5-(1H-pyrrol-2-yl)-nicotinamide] | 6.39 | 5.48
17 | Nc1ncc(-c2ccc(CN3CCCCC3)s2)nc1C(=O)Nc1ccncc1 [Compound A13, 3-Amino-6-(5-piperidin-1-ylmethyl-thiophen-2-yl)-pyrazine-2-carboxylic acid pyridin-4-ylamide] | 5.40 | 5.72
18 | Nc1ncc(-c2cnn(CCN3CCOCC3)c2)cc1C(=O)Nc1ccncc1 [Compound A51, 2-Amino-5-[1-(2-morpholin-4-yl-ethyl)-1H-pyrazol-4-yl]-N-pyridin-4-yl-nicotinamide] | 6.13 | 6.57
19 | Nc1ncc(-c2cc3ccccc3[nH]2)cc1C(=O)Nc1ccncc1 [Compound A55, 2-Amino-5-(1H-indol-2-yl)-N-pyridin-4-yl-nicotinamide] | 6.41 | 
20 | COc1ccc(NC(=O)c2cc(-c3ccc(CN4CCOCC4)s3)cnc2N)cc1 [Compound A39, 2-Amino-N-(4-methoxy-phenyl)-5-(5-morpholin-4-ylmethyl-thiophen-2-yl)-nicotinamide] | 6.04 | 6.41
21 | Nc1ncc(-c2ccc(CN3CCOCC3)s2)cc1C(=O)Nc1ccncc1 [Compound A54, 2-Amino-5-(5-morpholin-4-ylmethyl-thiophen-2-yl)-N-pyridin-4-yl-nicotinamide] | 7.06 | 6.35
22 | Nc1ncc(-c2ccc(S(N)(=O)=O)cc2)cc1C(=O)Nc1ccncc1 [Compound A7, 2-Amino-N-pyridin-4-yl-5-(4-sulfamoyl-phenyl)-nicotinamide] | 6.82 | 5.74
23 | Nc1ncc(-c2ccc(C(=O)O)cc2)cc1C(=O)Nc1ccncc1 [Compound A31, 4-[6-Amino-5-(pyridin-4-ylcarbamoyl)-pyridin-3-yl]-benzoic acid] | 6.40 | 6.00
24 | Cn1cccc1-c1cnc(N)c(C(=O)Nc2ccncc2)c1 [Compound A50, 2-Amino-5-(1-methyl-1H-pyrrol-2-yl)-N-pyridin-4-yl-nicotinamide] | 6.49 | 
25 | Nc1ncc(-c2ccc(CN3CCOCC3)s2)cc1C(=O)Nc1ccnc2ccoc12 [Compound A29, 2-Amino-N-furo[3,2-b]pyridin-7-yl-5-(5-morpholin-4-ylmethyl-thiophen-2-yl)-nicotinamide] | 6.05 | 5.62
26 | Nc1ncc(-c2ccc(CN3CCOCC3)s2)cc1C(=O)Nc1ccncn1 [Compound A27, 2-Amino-5-(5-morpholin-4-ylmethyl-thiophen-2-yl)-N-pyrimidin-4-yl-nicotinamide] | 6.09 | 5.59
27 | Nc1ncc(-c2cnc3ccccn23)cc1C(=O)Nc1ccncc1 [Compound A58] | 6.43 | 5.74
28 | CC(=O)c1ccc(-c2cnc(N)c(C(=O)Nc3ccncc3)c2)s1 [Compound A53, 5-(5-Acetyl-thiophen-2-yl)-2-amino-N-pyridin-4-yl-nicotinamide] | 6.80 | 6.29
29 | Nc1ncc(-c2cc3ccccc3s2)cc1C(=O)Nc1ccncc1 [Compound A52, 2-Amino-5-benzo[b]thiophen-2-yl-N-pyridin-4-yl-nicotinamide] | 6.20 | 
30 | COC(=O)c1cnccc1NC(=O)c1cc(-c2ccc(CN3CCOCC3)s2)cnc1N [Compound A35, 4-{[2-Amino-5-(5-morpholin-4-ylmethyl-thiophen-2-yl)-pyridine-3-carbonyl]-amino}-nicotinic acid methyl ester] | 6.35 | 
